Drawing on paper PMC6169531 (Journal of molecular biology, 2016), this text covers Ki for two compounds.

Assay in all cases: inhibition of methyl p-nitrophenyl phosphate hydrolysis, […] nm
Holding throughout (format): biochemical

Assay [1] addresses AP (Escherichia coli alkaline phosphatase) (Escherichia coli, UniProt P00634, D175A).
Assay [2] addresses AP (Escherichia coli alkaline phosphatase) (Escherichia coli, UniProt P00634, D123A).
Assay [3] addresses AP (Escherichia coli alkaline phosphatase) (Escherichia coli, UniProt P00634, K350A).
The target in assay [4] is AP (Escherichia coli alkaline phosphatase) (Escherichia coli, UniProt P00634, E344Y).
Sequence of AP (Escherichia coli alkaline phosphatase) (Escherichia coli, UniProt P00634, E344Y) (P00634 23-471 E344Y): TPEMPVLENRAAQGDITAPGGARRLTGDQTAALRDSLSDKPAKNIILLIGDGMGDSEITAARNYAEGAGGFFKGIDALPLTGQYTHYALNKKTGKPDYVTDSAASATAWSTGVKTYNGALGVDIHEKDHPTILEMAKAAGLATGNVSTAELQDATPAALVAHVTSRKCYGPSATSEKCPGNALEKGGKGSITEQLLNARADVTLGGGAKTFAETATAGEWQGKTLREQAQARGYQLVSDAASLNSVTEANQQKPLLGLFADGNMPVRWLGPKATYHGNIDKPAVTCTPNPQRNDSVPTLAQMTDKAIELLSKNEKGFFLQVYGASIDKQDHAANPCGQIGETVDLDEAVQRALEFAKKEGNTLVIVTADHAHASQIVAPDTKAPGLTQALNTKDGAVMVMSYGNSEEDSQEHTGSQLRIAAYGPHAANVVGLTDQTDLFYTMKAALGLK

Sequence of AP (Escherichia coli alkaline phosphatase) (Escherichia coli, UniProt P00634, D175A) (P00634 23-471 D175A): as the sequence (P00634 23-471 E344Y) above, with D153A, Y322E counted along it
Sequence of AP (Escherichia coli alkaline phosphatase) (Escherichia coli, UniProt P00634, D123A) (P00634 23-471, stated change not applied): as the sequence (P00634 23-471 E344Y) above, with Y322E counted along it
Sequence of AP (Escherichia coli alkaline phosphatase) (Escherichia coli, UniProt P00634, K350A) (P00634 23-471 K350A): as the sequence (P00634 23-471 E344Y) above, with Y322E, K328A counted along it

For orientation: Ki means a measure of affinity in units of concentration, obtained from inhibition or displacement. Lower therefore signals higher affinity. Consider `[O]=[W](=[O])([OH])[OH]` [tungstate], for which the figures for the Ki in assay [1], in assay [2] and in assay [3] were 64 µM, 99 µM and 44 µM, respectively.
In the case of `[O]=[V]([OH])([OH])[OH]` [vanadate], the Ki in assay [1] stood at 17 µM; in assay [2] it was 13 µM; in assay [4], 28 µM; in assay [3], 9.4 µM.
